From patent KR20220113942A, “제조성 및 용출성이 우수한 소형 정제” (스미토모 파마 가부시키가이샤, priority 2019, dated 2021)

Experiment: Test Example 2: evaluation of tabletability (capping on tableting)
Format: physicochemical
Settings: conclusion in words from Table 22

compression moldability: 압축 성형성이 나빠서
tendency to tableting failure (capping) as drug content ratio in the tablet rises (high drug content ratio in the tablet): 타정 장해(캐핑)가 발생하기 쉬움
SMILES: C[C@@H]1N=C(N)NC(N(C)C)=N1 [이메글리민, (6R)-N2,N2,6-트리메틸-3,6-디히드로-1,3,5-트리아진-2,4-디아민, 염산염]
